Laboratory results as given in ChEMBL document CHEMBL1146570, “Eudesmane derivatives and other sesquiterpenes from Laggera alata” (J Nat Prod, 2003).

Legend:
[1] = tested on: KB; test: Cytotoxicity against human KB cells after 72 hrs; type: functional, cell-based
[2] = tested on: SK-MEL; test: Cytotoxicity against human SK-MEL cells at 20 ug/mL after 72 hrs; type: functional
[3] = tested on: A549; test: Cytotoxicity against human A549 cells at 20 ug/mL after 72 hrs; type: functional; settings: A549, 72 h

| SMILES | IC50 [1] [µM] | inhibition at 20 µg/mL [2] [%] | inhibition at 20 µg/mL [3] [%] |
| --- | --- | --- | --- |
| C=C(C(=O)O)[C@@H]1CC[C@@]2(C)CC[C@@H](O)[C@@](C)(O)[C@@H]2C1 | > 100 |  |  |
| C=C(C(=O)O)[C@@H]1CC[C@@]2(C)CCC[C@@](C)(O)[C@@H]2C1 [ILICIC ACID] |  | 23.6 | 10.3 |
